Results published in US20180050993A1, “NOVEL FLUORINATED DERIVATIVES AS EGFR INHIBITORS USEFUL FOR TREATING CANCERS” (Trillium Therapeutics Inc., priority 2015, published 2018).
Structures can show the parent of a compound that is named as a salt. Where two headings read alike, the source gives them in different places.

Key:
[1] = Brain and plasma concentrations after oral gavage in rat, sampling to 4 hours (Table 4); assay type: in vivo; settings: Table 4 (4 hours); for Kp at 4 h: brain/plasma, po, 50 mg/kg
[2] = Brain concentrations after PO administration in rat, peak at 8 hours (Table 5); assay type: in vivo; settings: Table 5 (8 hours); for Kp at 8 h: brain/plasma, po, 50 mg/kg
COLO 205 = test: NCI screening panel, growth %; assay type: cell-based, human; settings: Colon
Protocol: (§1) After 24 h, two plates of each cell line are fixed in situ with TCA, to represent a measurement of the cell population for each cell line at the time of drug addition (Tz). Experimental drugs are solubilised in dimethyl sulfoxide at 400-fold the desired final maximum test concentration and stored frozen prior to use. At the time of drug addition, an aliquot of frozen concentrate is thawed and diluted to twice the desired final maximum test concentration with complete medium containing 50 μg/ml gentamicin. Additional four, 10-fold or log serial dilutions are made to provide a total of five drug concentrations plus control. Aliquots of 100 μl of these different drug dilutions are added to the appropriate microtiter wells already containing 100 μl of medium, resulting in the required final drug concentrations.
(§2) Following drug addition, the plates are incubated for an additional 48 h at 37° C., 5% CO2, 95% air, and 100% relative humidity. For adherent cells, the assay is terminated by the addition of cold TCA (trichloroacetic acid). Cells are fixed in situ by the gentle addition of 50 μl of cold 50% (w/v) TCA (final concentration, 10% TCA) and incubated for 60 minutes at 4° C. The supernatant is discarded, and the plates are washed five times with tap water and air dried. Sulforhodamine B (SRB) solution (100 μl) at 0.4% (w/v) in 1% acetic acid is added to each well, and plates are incubated for 10 minutes at room temperature. After staining, unbound dye is removed by washing five times with 1% acetic acid and the plates are air dried. Bound stain is subsequently solubilised with 10 mM trizma base, and the absorbance is read on an automated plate reader at a wavelength of 515 nm. For suspension cells, the methodology is the same except that the assay is terminated by fixing settled cells at the bottom of the wells by gently adding 50 μl of 80% TCA (final concentration, 16% TCA). Using the seven absorbance measurements [time zero, […], control growth, (C), and test growth in the presence of drug at the five concentration levels (Ti)], the percentage growth is calculated at each of the drug concentration levels. Percentage growth inhibition is calculated as: [(Ti−Tz)/(C−Tz)]×100 for concentrations in which Ti>/=Tz and [(Ti−Tz)/Tz]×100 for concentrations in which Ti<Tz.
(§3) Three dose response parameters are calculated for each experimental agent. […] The drug concentration resulting in total growth inhibition (TGI) is calculated from Ti=Tz. […] Values are calculated for each of these three parameters if the level of activity is reached. However, if the effect is not reached or is exceeded, the value for that parameter is expressed as greater or less than the maximum or minimum concentration tested.

HCT-15 = test: NCI screening panel, growth %; assay type: cell-based, human; settings: Colon
Protocol: as §1, §2, §3

HS 578T = test: NCI screening panel, growth %; assay type: cell-based, human; settings: Breast
Protocol: as §1, §2, §3

HT29 = test: NCI screening panel, growth %; assay type: cell-based, human; settings: Colon
Protocol: as §1, §2, §3

IGROV1 = test: NCI screening panel, growth %; assay type: cell-based, human; settings: Ovarian
Protocol: as §1, §2, §3

K-562 = test: NCI screening panel, growth %; assay type: cell-based, human; settings: Leukemia
Protocol: as §1, §2, §3

MOLT-4 = test: NCI screening panel, growth %; assay type: cell-based, human; settings: Leukemia
Protocol: as §1, §2, §3

SNB-75 = test: NCI screening panel, growth %; assay type: cell-based, human; settings: CNS
Protocol: as §1, §2, §3

SR = test: NCI screening panel, growth %; assay type: cell-based, human; settings: Leukemia
Protocol: as §1, §2, §3

EPHA6 [3] = biological target: T1, EPHA6 (Homo sapiens, UniProt Q9UF33); test: Kinome screen at 300 nM (qPCR competition binding); set-up: purchased DiscoveRx; host or cells: E. coli BL21-derived (T7 phage) or HEK-293; settings: result in words
T1 sequence (Q9UF33 23-1036): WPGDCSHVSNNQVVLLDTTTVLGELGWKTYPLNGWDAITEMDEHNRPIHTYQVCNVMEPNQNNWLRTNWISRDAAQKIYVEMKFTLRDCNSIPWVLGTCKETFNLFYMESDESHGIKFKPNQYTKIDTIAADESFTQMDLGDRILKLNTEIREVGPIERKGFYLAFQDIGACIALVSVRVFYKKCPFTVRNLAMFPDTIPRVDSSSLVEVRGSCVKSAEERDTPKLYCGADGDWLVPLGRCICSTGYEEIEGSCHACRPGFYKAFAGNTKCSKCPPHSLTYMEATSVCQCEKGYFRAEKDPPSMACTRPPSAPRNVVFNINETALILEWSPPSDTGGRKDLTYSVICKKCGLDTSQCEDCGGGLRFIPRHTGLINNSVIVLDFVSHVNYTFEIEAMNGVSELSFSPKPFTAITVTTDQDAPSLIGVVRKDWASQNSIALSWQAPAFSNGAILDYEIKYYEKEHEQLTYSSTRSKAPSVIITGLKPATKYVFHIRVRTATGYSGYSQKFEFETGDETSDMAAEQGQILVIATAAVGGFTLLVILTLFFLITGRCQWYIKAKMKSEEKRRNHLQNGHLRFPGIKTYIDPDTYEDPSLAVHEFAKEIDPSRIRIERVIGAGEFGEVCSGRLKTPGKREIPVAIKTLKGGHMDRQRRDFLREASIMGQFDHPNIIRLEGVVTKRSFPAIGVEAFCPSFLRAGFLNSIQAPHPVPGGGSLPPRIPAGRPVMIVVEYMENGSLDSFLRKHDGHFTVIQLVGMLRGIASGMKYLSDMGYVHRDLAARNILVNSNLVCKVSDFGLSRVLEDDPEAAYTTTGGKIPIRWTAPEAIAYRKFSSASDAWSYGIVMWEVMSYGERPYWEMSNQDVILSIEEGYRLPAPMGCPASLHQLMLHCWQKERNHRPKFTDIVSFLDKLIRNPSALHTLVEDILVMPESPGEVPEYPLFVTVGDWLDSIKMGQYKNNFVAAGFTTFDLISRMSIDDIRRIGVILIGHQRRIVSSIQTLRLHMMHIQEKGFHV

EPHA6 [4] = biological target: T1, EPHA6; test: Binding constants (Kd) for EPHA6, kinase competition binding with qPCR readout
[5] = male, Sprague-Dawley (SD), brain tissue, PO 50 mg/kg
[6] = Sprague-Dawley, brain, PO 50 mg/kg

Fc1ccc(Nc2ncnc3cc(OCCOC(F)F)c(OCCOC(F)F)cc23)c(F)c1Cl [Compound 2D•HCl, N-(3-chloro-2,4-difluoro-phenyl)-6,7-bis[2-(difluoromethoxy)ethoxy]quinazolin-4-amine]
AUClast ([1]; brain tissue, PO 50 mg/kg): 25272 ng·h/g | Cmax [1, 5]: 8040 ng/g | Tmax [1, 5]: 4 h | Kp at 4 h ([1]; male, Sprague-Dawley (SD), read-out: AUCLast Ratio (Brain/Plasma)): 2.05 | Kp at 4 h ([1]; male, Sprague-Dawley (SD), read-out: Cmax Ratio (Brain/Plasma)): 2.01 | Cmax [2, 6]: 6340 ng/g | Tmax [2, 6]: 8 h | Kp at 8 h ([2]; Sprague-Dawley, read-out: AUCLast Ratio (Brain/Plasma)): 1.92 | Kp at 8 h ([2]; Sprague-Dawley, read-out: Cmax Ratio (Brain/Plasma)): 2.07 | AUCInf ([2]; brain, PO 50 mg/kg): 101339 ng·h/g | AUClast ([2]; brain, PO 50 mg/kg): 99996 ng·h/g | Growth % (COLO 205): 77.41% | Growth % (HCT-15): 55.49% | Growth % (HS 578T): 68.48% | Growth % (HT29): 58.66% | Growth % (IGROV1): 6.79% | Growth % (K-562): 37.37% | Growth % (MOLT-4): 55.03% | Growth % (SNB-75): 57.99% | Growth % (SR): 75.96% | selectivity over erlotinib for the ephrin receptor kinase, EPHA6 (EPHA6 [3]): did show selectivity over erlotinib | Kd (EPHA6 [4]): 2.5 nM
